Experimental data taken from patent publication US20250059188A1, “ARYLSULPHONAMIDE COMPOUNDS” (Anaxis Pharma Pty Ltd, priority 2021, published 2025).

What was measured:
human RIPK1 = human RIPK1 (Homo sapiens (Human), UniProt Q13546); assay: KINOMEscan binding assay, human RIPK1; settings: equilibrium dissociation constant
Summary of the method: (§1)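 Active-site competition binding: DNA-tagged kinase (T7 phage fusion from BL21-derived E. coli lysate, or HEK-293-expressed) captured on immobilized-ligand beads, with bound kinase in the eluate quantified by qPCR. Compounds ran as 11-point 3-fold dilutions, 1% DMSO, top 30,000 nM for most. Kd came from a Hill fit (slope −1).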

human MLKL (full length) = human MLKL (full length) (Homo sapiens (Human), UniProt Q8NB16); assay: KINOMEscan binding assay, human MLKL (full length); settings: equilibrium dissociation constant
human MLKL (full length), sequence (Q8NB16 whole entry): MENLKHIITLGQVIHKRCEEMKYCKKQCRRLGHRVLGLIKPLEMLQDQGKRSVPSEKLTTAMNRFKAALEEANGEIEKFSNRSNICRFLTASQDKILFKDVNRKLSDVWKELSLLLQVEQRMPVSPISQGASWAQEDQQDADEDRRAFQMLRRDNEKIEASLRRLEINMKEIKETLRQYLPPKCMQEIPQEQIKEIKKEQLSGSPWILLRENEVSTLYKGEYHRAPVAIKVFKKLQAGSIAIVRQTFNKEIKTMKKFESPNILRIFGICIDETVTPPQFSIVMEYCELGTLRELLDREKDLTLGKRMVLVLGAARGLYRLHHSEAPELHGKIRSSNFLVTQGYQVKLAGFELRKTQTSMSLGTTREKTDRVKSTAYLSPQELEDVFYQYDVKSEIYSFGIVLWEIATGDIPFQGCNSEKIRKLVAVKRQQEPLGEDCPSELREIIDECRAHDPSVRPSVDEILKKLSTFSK
Summary of the method: as §1

human RIPK1, sequence (Q13546 whole entry, the tested form may be a part): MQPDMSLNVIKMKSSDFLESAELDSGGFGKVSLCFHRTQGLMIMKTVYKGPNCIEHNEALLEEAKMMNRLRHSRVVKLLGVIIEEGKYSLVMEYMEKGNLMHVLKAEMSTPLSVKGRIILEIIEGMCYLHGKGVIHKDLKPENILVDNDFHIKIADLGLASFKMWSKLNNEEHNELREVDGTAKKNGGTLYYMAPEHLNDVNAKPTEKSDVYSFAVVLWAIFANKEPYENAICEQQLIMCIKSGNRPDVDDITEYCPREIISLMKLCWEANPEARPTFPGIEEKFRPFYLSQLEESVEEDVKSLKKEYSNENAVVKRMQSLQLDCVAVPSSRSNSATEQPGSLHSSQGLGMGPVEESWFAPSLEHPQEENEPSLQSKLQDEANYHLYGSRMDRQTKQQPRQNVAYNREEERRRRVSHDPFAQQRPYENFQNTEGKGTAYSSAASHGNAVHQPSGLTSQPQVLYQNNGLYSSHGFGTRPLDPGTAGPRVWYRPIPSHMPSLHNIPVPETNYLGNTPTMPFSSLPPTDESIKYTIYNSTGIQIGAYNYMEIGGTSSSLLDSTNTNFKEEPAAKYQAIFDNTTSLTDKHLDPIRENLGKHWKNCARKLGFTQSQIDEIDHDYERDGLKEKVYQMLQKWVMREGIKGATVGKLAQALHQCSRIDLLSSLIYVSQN

| Compound | Kd (human RIPK1) [nM] | Kd (human MLKL (full length)) [nM] |
| --- | --- | --- |
| CC(n1cc(-c2cnc(N)c3c(-c4ccc(NS(=O)(=O)C(F)F)c(O[C@@H](C)c5ccc(F)cc5)c4)nn(C)c23)cn1)C(F)(F)F (stereo partly drawn) [Compound 142, N-(4-(4-amino-1-methyl-7-(1-(1,1,1-trifluoropropan-2-yl)-1H-pyrazol-4-yl)-1H-pyrazolo[4,3-c]pyridin-3-yl)-2-((S)-1-(4-fluorophenyl)ethoxy)phenyl)-1,1-difluoromethanesulfonamide] | > 10000 | < 1 |
| C[C@H](Oc1cc(-c2nn(C)c3c(-c4cnn(C5CCN(C)C6(CC6)C5)c4)cnc(N)c23)ccc1NS(=O)(=O)C(F)F)c1ccc(F)cc1 (stereo partly drawn) [Compound 145, N-(4-(4-amino-1-methyl-7-(1-(4-methyl-4-azaspiro[2.5]octan-7-yl)-1H-pyrazol-4-yl)-1H-pyrazolo[4,3-c]pyridin-3-yl)-2-((S)-1-(4-fluorophenyl)ethoxy)phenyl)-1,1-difluoromethanesulfonamide] | > 10000 | 1 to 100 |
| C[C@H](Oc1cc(-c2nn(C)c3c(-c4cnn(C5CCC(F)(F)CC5)c4)cnc(N)c23)ccc1NS(=O)(=O)C(F)F)c1ccc(F)cc1 [Compound 146, (S)-N-(4-(4-amino-7-(1-(4,4-difluorocyclohexyl)-1H-pyrazol-4-yl)-1-methyl-1H-pyrazolo[4,3-c]pyridin-3-yl)-2-(1-(4-fluorophenyl)ethoxy)phenyl)-1,1-difluoromethanesulfonamide] | > 10000 | 1 to 100 |
| C[C@H](Oc1cc(-c2nn(C)c3c(-c4cnn(C5CC6CCC(C5)N6CC(F)(F)F)c4)cnc(N)c23)ccc1NS(=O)(=O)C(F)F)c1ccc(F)cc1 (stereo partly drawn) [Compound 153, N-(4-(4-amino-1-methyl-7-(1-(8-(2,2,2-trifluoroethyl)-8-azabicyclo[3.2.1]octan-3-yl)-1H-pyrazol-4-yl)-1H-pyrazolo[4,3-c]pyridin-3-yl)-2-((S)-1-(4-fluorophenyl)ethoxy)phenyl)-1,1-difluoromethanesulfonamide] | > 10000 | 1 to 100 |

Continued, values first:

| Kd (human RIPK1) [nM] | Kd (human MLKL (full length)) [nM] | Compound |
| --- | --- | --- |
| > 10000 | 1 to 100 | CC1C(n2cc(-c3cnc(N)c4c(-c5ccc(NS(=O)(=O)C(F)F)c(O[C@@H](C)c6ccc(F)cc6)c5)nn(C)c34)cn2)CN1C (stereo partly drawn) [Compound 147, N-(4-(4-amino-7-(1-(1,2-dimethylazetidin-3-yl)-1H-pyrazol-4-yl)-1-methyl-1H-pyrazolo[4,3-c]pyridin-3-yl)-2-((S)-1-(4-fluorophenyl)ethoxy)phenyl)-1,1-difluoromethanesulfonamide] |
| > 10000 | 1 to 100 | C[C@H](Oc1cc(-c2nn(C)c3c(-c4cnn(C5CCN(C)C(C(F)(F)F)C5)c4)cnc(N)c23)ccc1NS(=O)(=O)C(F)F)c1ccc(F)cc1 (stereo partly drawn) [Compound 148, N-(4-(4-amino-1-methyl-7-(1-(1-methyl-2-(trifluoromethyl)piperidin-4-yl)-1H-pyrazol-4-yl)-1H-pyrazolo[4,3-c]pyridin-3-yl)-2-((S)-1-(4-fluorophenyl)ethoxy)phenyl)-1,1-difluoromethanesulfonamide] |
| > 10000 | 1 to 100 | Cc1c(-c2cnc(N)c3c(-c4ccc(NS(=O)(=O)C(F)F)c(O[C@@H](C)c5ccc(F)cc5)c4)nn(C)c23)cnn1C1CCN(C)C(C)(C)C1 (stereo partly drawn) [Compound 157, N-(4-(4-amino-1-methyl-7-(5-methyl-1-(1,2,2-trimethylpiperidin-4-yl)-1H-pyrazol-4-yl)-1H-pyrazolo[4,3-c]pyridin-3-yl)-2-((S)-1-(4-fluorophenyl)ethoxy)phenyl)-1,1-difluoromethanesulfonamide] |
| > 10000 | < 1 | C[C@H](Oc1cc(-c2nn(C)c3c(-c4cnn(C5CCN(C)C(C)(C)C5)c4)cnc(N)c23)ccc1NS(=O)(=O)C(F)F)c1ccc(Cl)cc1 (stereo partly drawn) [Compound 159, N-(4-(4-amino-1-methyl-7-(1-(1,2,2-trimethylpiperidin-4-yl)-1H-pyrazol-4-yl)-1H-pyrazolo[4,3-c]pyridin-3-yl)-2-((S)-1-(4-chlorophenyl)ethoxy)phenyl)-1,1-difluoromethanesulfonamide] |
